The source made the active and inactive calls. No cut-off for these calls is given here.
Legend:
[1] = system: Felis catus; test: Hypotensive activity in cat following i.v. administration of 1 mg/kg expressed as fall in blood pressure; NA denotes not active; type: functional, organism-based; design: dose 1 mg/kg; conditions: for Max effect: at 1 mg/kg
[2] = system: Felis catus; test: Hypotensive activity in cat following i.v. administration of 5 mg/kg expressed as fall in blood pressure; type: functional; conditions: route intravenous
[3] = system: Felis catus; test: Duration of hypotensive activity in cat following i.v. administration of 5 mg/kg; type: functional; conditions: route intravenous
[4] = system: Felis catus; test: Duration of hypotensive activity in cat following i.v. administration of 1 mg/kg; type: functional; conditions: route intravenous
[5] = system: Felis catus; test: Hypotensive activity in cat following i.v. administration of 1 mg/kg expressed as fall in blood pressure; type: functional; conditions: route intravenous
[6] = system: Felis catus; test: Hypotensive activity in cat following i.v. administration of 5 mg/kg expressed as fall in blood pressure; D denotes death; type: functional, organism-based; design: dose 5 mg/kg
[7] = system: Felis catus; test: Hypotensive activity in cat following i.v. administration of 5 mg/kg expressed as fall in blood pressure; NA denotes not active; type: functional, organism-based; design: dose 5 mg/kg; conditions: at 5 mg/kg

| Compound | Decrease in blood pressure [1] | Max effect [1] | Decrease in blood pressure [2] [mmHg] | Max effect [2] [%] | Duration [3] [min] | Duration [4] [min] | Decrease in blood pressure [5] [mmHg] | Max effect [5] [%] | Decrease in blood pressure [6] | Max effect [7] |
| --- | --- | --- | --- | --- | --- | --- | --- | --- | --- | --- |
| c1ccc2cc(OCN3CCNCC3)ccc2c1 | inactive | inactive | 10 | 7 | 2 | – | – | – | – | – |
| O=C(O)C(CCOc1cccc2ccccc12)CN1CCCC1 (stereo not given) | – | – | 20 | 17 | 30 | 2 | 10 | 8 | – | – |
| CN1CCN(COc2ccc3ccccc3c2)CC1 | – | – | – | – | – | 2 | 18 | 21 | Death | inactive |
| c1ccc2cc(OCN3CCCCC3)ccc2c1 | – | – | 44 | 52 | 17 | 2 | 20 | 21 | – | – |
| c1ccc2cc(OCN3CCOCC3)ccc2c1 | inactive | inactive | 50 | 41 | >35 | – | – | – | – | – |
| CC(C)NCC(O)COc1cccc2ccccc12 (stereo not given) [PROPRANOLOL] | – | – | 50 | 41 | >60 | 40 | 46 | 35 | – | – |
| c1ccc2cc(OCN3CCCC3)ccc2c1 | – | – | 30 | 19 | 16 | 10 | 12 | 7 | – | – |
| O=C(O)C(CCOc1cccc2ccccc12)CN1CCN(c2ccccc2)CC1 (stereo not given) | – | – | 50 | 40 | 7 | 2 | 20 | 14 | – | – |
| CN1CCN(CC(CCOc2cccc3ccccc23)C(=O)O)CC1 (stereo not given) | – | – | 34 | 38 | 4 | 2 | 18 | 17 | – | – |
| O=C(O)C(CCOc1cccc2ccccc12)CN1CCNCC1 (stereo not given) | – | – | 25 | 19 | 7 | 12 | 12 | 7 | – | – |
| O=C(O)C(CCOc1cccc2ccccc12)CN1CCCCC1 (stereo not given) | – | – | 40 | 47 | 50 | 16 | 30 | 19 | – | – |
| O=C(O)C(CCOc1cccc2ccccc12)CN1CCOCC1 (stereo not given) | – | – | 16 | 17 | 2 | 2 | 18 | 17 | – | – |
| c1ccc(N2CCN(COc3ccc4ccccc4c3)CC2)cc1 | – | – | 60 | 75 | 120 | 16 | 40 | 50 | – | – |

— ChEMBL document CHEMBL1137974, “1- and 2-substituted naphthalenes: a new class of potential hypotensive agents” (2004)
